This note sets out measurements from ChEMBL document CHEMBL1133579, “Derivation of pharmacophore and CoMFA models for leukotriene D(4) receptor antagonists of the quinolinyl(bridged)aryl series” (J Med Chem, 2000).

The structures appear in SMILES notation.

The first experiment concerns the target T1, Cysteinyl leukotriene receptor 1 (Cavia porcellus, UniProt Q2NNR5).
T1 sequence (Q2NNR5 whole entry): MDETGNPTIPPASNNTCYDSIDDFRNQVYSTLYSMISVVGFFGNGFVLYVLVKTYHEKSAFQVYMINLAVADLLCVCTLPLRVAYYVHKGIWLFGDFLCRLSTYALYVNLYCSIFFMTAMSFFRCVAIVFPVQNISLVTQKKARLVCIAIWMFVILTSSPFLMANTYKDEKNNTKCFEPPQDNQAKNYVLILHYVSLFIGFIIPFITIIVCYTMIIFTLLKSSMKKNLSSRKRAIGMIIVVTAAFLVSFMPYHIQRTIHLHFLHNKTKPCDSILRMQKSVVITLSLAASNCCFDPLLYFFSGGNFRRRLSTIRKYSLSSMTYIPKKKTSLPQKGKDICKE
Kind of experiment: In vitro binding affinity towards Cysteinyl leukotriene D4 receptor by using [3H]LTD4 binding assay in guinea pig lung membranes. It counts as cell membranes, Membrane.
Take `O=C(O)CCCc1ccc(NC(=O)Cc2ccc(OCc3ccc4ccccc4n3)cc2)cc1`: the Ki was 7.3 nM.

In the case of `CC(C(=O)Nc1ccc(CCCC(=O)O)cc1)c1ccc2cc(OCc3ccc4ccccc4n3)ccc2c1` (stereo not given), the Ki came out at 38 nM.

Consider `CC(C(=O)NCc1ccc(C(=O)O)cc1)c1ccc2cc(OCc3ccc4ccccc4n3)ccc2c1` (stereo not given), for which the Ki amounted to 70 nM.

Take `CC(C(=O)NCCCCC(=O)O)c1ccc2cc(OCc3ccc4ccccc4n3)ccc2c1` (stereo not given): the affinity corresponds to a Ki of 360 nM.

With `CC(C(=O)Nc1ccc(C(=O)O)cc1)c1ccc2cc(OCc3ccc4ccccc4n3)ccc2c1` (stereo not given), affinity was put at a Ki of 118 nM.

As for `O=C(O)c1ccc(OCC(O)COc2ccc3ccc(OCc4ccc5ccccc5n4)cc3c2)cc1` (stereo not given), the Ki turned out to be 4 nM.

Compound `O=C(O)c1ccc(Cc2noc(-c3ccc4ccc(OCc5ccc6ccccc6n5)cc4c3)n2)cc1` registered a Ki of 15 nM.

On to `O=C(O)c1ccc(CCCOc2ccc3ccc(OCc4ccc5ccccc5n4)cc3c2)cc1`, for which the Ki is 5.6 nM.

The compound `Cc1ccccc1S(=O)(=O)NC(=O)c1ccc(CCNC(=O)c2ccc3ccc(OCc4ccc5ccccc5n4)cc3c2)cc1` had a Ki of 15 nM.

Take `O=C(O)c1ccc2c(ccn2Cc2ccc3ccc(OCc4ccc5ccccc5n4)cc3c2)c1`: the Ki turned out to be 30 nM.

`CC(C(=O)NCc1ccc(CC(=O)O)cc1)c1ccc2cc(OCc3ccc4ccccc4n3)ccc2c1` (stereo not given) had a Ki of 134 nM.

`O=C(Cc1ccc(OCCCCc2ccccc2)cc1)Nc1ccc(CCCc2nnn[nH]2)cc1` returned a Ki of 2590 nM.

`CN(C(=O)Cc1ccc(OCc2ccc3ccccc3n2)cc1)c1ccc(CCCC(=O)O)cc1` returned a Ki of 297 nM.

`O=C(O)c1ccc(CCNS(=O)(=O)c2ccc3ccc(OCc4ccc5ccccc5n4)cc3c2)cc1`: the Ki came out at 2.6 nM.

`O=C(Nc1cccc2c(=O)cc(C(=O)O)oc12)c1ccc(OCc2ccc3ccccc3n2)cc1` showed an inhibition constant (Ki) of 168 nM.

`CC(C(=O)NCc1cccc(-c2nnn[nH]2)c1)c1ccc2cc(OCc3ccc4ccccc4n3)ccc2c1` (stereo not given) showed a Ki of 29 nM.

On to `O=C(Nc1cccc2c(=O)cc(C(=O)O)oc12)c1ccc2ccc(OCc3ccc4ccccc4n3)cc2c1`, for which the Ki stood at 30 nM.

`O=C(Cc1ccc(OCc2ccc3ccccc3n2)cc1)Nc1ccc(CCCc2nnn[nH]2)cc1` displayed a Ki of 88 nM.

The compound `O=C(O)c1ccc(CCNC(=O)c2ccc3ccc(OCc4ccc(-c5ccccc5)cn4)cc3c2)cc1` gave a Ki of 79 nM.

Turning to `O=C(Nc1ccc(CCCc2nnn[nH]2)cc1)c1ccc(OCc2ccc3ccccc3n2)cc1`, the Ki stood at 595 nM.

With `O=C(O)c1ccc(CCNC(=O)c2ccc3ccc(OCc4ccc5ccccc5n4)cc3c2)cc1`, the Ki turned out to be 1.05 nM.

Take `O=C(O)CCCc1ccc(NC(=O)Cc2ccc(OCc3ccc4ccc(Cl)cc4n3)cc2)cc1`: the affinity, expressed as Ki, was 4.8 nM.

The compound `O=C(O)c1ccc(CCNC(=O)C2CCc3ccc(OCc4ccc5ccccc5n4)cc3O2)cc1` (stereo not given) gave a Ki of 237 nM.

In turn, `O=C(Cc1ccc(OCc2ccc3ccccc3n2)cc1)Nc1ccc(Cc2nnn[nH]2)cc1` showed a Ki of 108 nM.

`O=C(O)CCCc1ccc(NC(=O)Cc2cccc(OCc3ccc4ccccc4n3)c2)cc1` returned a Ki of 40 nM.

`O=C(O)Cc1ccc(CCNS(=O)(=O)c2ccc3ccc(OCc4ccc5ccccc5n4)cc3c2)cc1` came in with a Ki of 2.4 nM.

Consider `Cn1cc(CC(=O)NCc2ccc(-c3nn[nH]n3)cc2)c2cc(OCc3ccc4ccccc4n3)ccc21`, for which the Ki turned out to be 1050 nM.

The target in another experiment is T1, Cysteinyl leukotriene receptor 1. Kind of experiment: In vitro binding affinity towards Cysteinyl leukotriene D4 receptor by using [3H]LTD4 binding assay in guinea pig lung membranes; IA means inactive. It counts as cell membranes.
Turning to `Cc1cn(Cc2ccc3ccccc3n2)c2cc(C(=O)NCCc3ccc(C(=O)O)cc3)ccc12`, the Ki entry is listed as “Not Active”.

Regarding `O=C(O)c1ccc(CCNC(=O)c2ccc3ccc(OCc4ccc5ccccc5c4)cc3c2)cc1`, the Ki result is reported as “Not Active”.

`O=C(O)c1ccc(CCNC(=O)c2cc(=O)c3ccc(OCc4ccc5ccccc5n4)cc3o2)cc1`: the Ki entry was “Not Active”.
